According to ChEMBL document CHEMBL4431352, “Structure-activity relationship of Garcinia xanthones analogues: Potent Hsp90 inhibitors with cytotoxicity and antiangiogenesis activity” (Bioorg Med Chem, 2016):

How the values were obtained:
[1] = molecular target: Heat shock protein HSP 90-alpha (Homo sapiens, UniProt P07900); assay: Inhibition of 6x-His tagged human recombinant full length Hsp90alpha ATPase preincubated for 0.5 hrs followed by ATP addition measured after 30 mins by HTRF assay
MCF7 = assay: Antiproliferative activity against human MCF7 cells assessed as growth inhibition by MTT assay; type: functional, cell-based
A549 = assay: Antiproliferative activity against human A549 cells assessed as growth inhibition by MTT assay; type: functional, cell-based
PC-3 = assay: Antiproliferative activity against human PC3 cells assessed as growth inhibition by MTT assay; type: functional, cell-based
HT-29 = assay: Antiproliferative activity against human HT-29 cells assessed as growth inhibition by MTT assay; type: functional, cell-based
SK-BR-3 = assay: Antiproliferative activity against human SK-BR-3 cells assessed as growth inhibition by MTT assay; type: functional, cell-based
HepG2 = assay: Antiproliferative activity against human HepG2 cells assessed as growth inhibition by MTT assay; type: functional, cell-based

| Compound | IC50 [1] | further results |
| --- | --- | --- |
| CC(C)=CCC12OC(C)(C)C3CC(C=C4C(=O)c5ccccc5OC431)C2=O (stereo not drawn) | 23.9 µM |  |
| C/C(=C\CC12OC(C)(C)C3CC(C=C4C(=O)c5c(O)cccc5OC431)C2=O)CO (stereo not drawn) | 27.3 µM |  |
| C/C(=C\CC12OCC3CC(C=C4C(=O)c5c(O)cccc5OC431)C2=O)CCl (stereo not drawn) | 6.2 µM |  |
| CC(C)=CCC[C@]1(C)C=Cc2c(O)c3c(c(CC=C(C)C)c2O1)O[C@]12C(=C[C@@H]4C[C@H]1C(C)(C)O[C@@]2(C/C=C(/C)C(=O)O)C4=O)C3=O [GAMBOGIC ACID] | 22 µM | IC50 (MCF7): 1.25 µM; IC50 (A549): 1.2 µM; IC50 (PC-3): 1.19 µM; IC50 (HT-29): 2.37 µM; IC50 (SK-BR-3): 0.89 µM; IC50 (HepG2): 2.19 µM |
| CC(C)=CCC12OCC3CC(C=C4C(=O)c5ccccc5OC431)C2=O (stereo not drawn) | 35.2 µM |  |

Further molecules by falling IC50 [1], results first:

| IC50 [1] | Compound | further results |
| --- | --- | --- |
| 76.8 µM | COc1cccc2c1C(=O)C1=CC3CC4C(C)(C)OC(CC=C(C)C)(C3=O)C14O2 (stereo not drawn) |  |
| 67.1 µM | CC(C)=CCC12OC(C)(C)C3CC(C=C4C(=O)c5c(cccc5OS(C)(=O)=O)OC431)C2=O (stereo not drawn) |  |
| 36.6 µM | C/C(=C\CC12OCC3CC(C1=O)C1OC14C(=O)c1c(O)cccc1OC324)CC=O (stereo not drawn) |  |
| 28 µM | C=CCC12OCC3CC(C=C4C(=O)c5ccccc5OC431)C2=O (stereo not drawn) |  |
| 22.6 µM | C/C(=C\CC12OC(C)(C)C3CC(C=C4C(=O)c5c(O)cccc5OC431)C2=O)CC=O (stereo not drawn) |  |
| 15.3 µM | C/C(=C\CC12OC(C)(C)C3CC(C=C4C(=O)c5c(O)cccc5OC431)C2=O)CCl (stereo not drawn) |  |
| 13.6 µM | CC(C)=CCC12OCC3CC(C=C4C(=O)c5c(cccc5OS(C)(=O)=O)OC431)C2=O (stereo not drawn) |  |
